In the series the test system is CCRIS mutagenicity, Ames/micronucleus/aberration tests. Description: CCRIS mutagenicity studies.
Where [1] appears, read: Test System: AMES SALMONELLA TYPHIMURIUM, Strain/Indicator: TA98, Metabolic Activation: NONE, Method: STANDARD PLATE.
Where [2] appears, read: Test System: AMES SALMONELLA TYPHIMURIUM, Strain/Indicator: TA100, Metabolic Activation: NONE, Method: STANDARD PLATE.
[3] abbreviates: Test System: AMES SALMONELLA TYPHIMURIUM, Strain/Indicator: TA98, Metabolic Activation: RAT, LIVER, S-9, AROCLOR 1254, Method: STANDARD PLATE.
Setting [4] is: Test System: AMES SALMONELLA TYPHIMURIUM, Strain/Indicator: TA100, Metabolic Activation: RAT, LIVER, S-9, AROCLOR 1254, Method: STANDARD PLATE.

The source made the active and inactive calls. No rule for the calls is given here.

For `O=[N+]([O-])c1ccc2c(ccc3cc4c(ccc5ccccc54)cc32)c1`, the mutagenic call was “active; positive” (Test System: AMES SALMONELLA TYPHIMURIUM, Strain/Indicator: TA98(1,8-DNP6), Metabolic Activation: NONE); “active; positive” (Test System: AMES SALMONELLA TYPHIMURIUM, Strain/Indicator: TA98(1,8-DNP6), Metabolic Activation: RAT, LIVER, S-9, AROCLOR 1254); “active; positive” (Test System: AMES SALMONELLA TYPHIMURIUM, Strain/Indicator: TA98(NR), Metabolic Activation: NONE); “active; positive” (Test System: AMES SALMONELLA TYPHIMURIUM, Strain/Indicator: TA98(NR), Metabolic Activation: RAT, LIVER, S-9, AROCLOR 1254); “active; positive” (Test System: AMES SALMONELLA TYPHIMURIUM, Strain/Indicator: TA98, Metabolic Activation: NONE); “active; positive” (Test System: AMES SALMONELLA TYPHIMURIUM, Strain/Indicator: TA98, Metabolic Activation: RAT, LIVER, S-9, AROCLOR 1254). The mutagenic call by setting is: (Test System: AMES SALMONELLA TYPHIMURIUM, Strain/Indicator: TA100(NR), Metabolic Activation: NONE) “inactive; negative”; (Test System: AMES SALMONELLA TYPHIMURIUM, Strain/Indicator: TA100(NR), Metabolic Activation: RAT, LIVER, S-9, AROCLOR 1254) “active; positive”; (Test System: AMES SALMONELLA TYPHIMURIUM, Strain/Indicator: TA100, Metabolic Activation: NONE) “inactive; negative”; (Test System: AMES SALMONELLA TYPHIMURIUM, Strain/Indicator: TA100, Metabolic Activation: RAT, LIVER, S-9, AROCLOR 1254) “active; positive”; (Test System: AMES SALMONELLA TYPHIMURIUM, Strain/Indicator: TA104, Metabolic Activation: NONE) “inactive; negative”; (Test System: AMES SALMONELLA TYPHIMURIUM, Strain/Indicator: TA104, Metabolic Activation: RAT, LIVER, S-9, AROCLOR 1254) “active; positive”.

On to `CC(N)c1ccccc1.CC(N)c1ccccc1.[Cl][Pt][Cl]` (stereo not drawn), for which the mutagenic call by setting is: under setting [1], “active; positive”; under setting [2], “active; positive”; (Test System: AMES SALMONELLA TYPHIMURIUM, Strain/Indicator: TA2410, Metabolic Activation: NONE, Method: STANDARD PLATE) “active; positive”.

In the case of `CSCCC(NC(=O)COc1cc(Cl)c(Cl)cc1Cl)C(=O)O` (stereo not drawn), the mutagenic call (Test System: AMES SALMONELLA TYPHIMURIUM, Strain/Indicator: TA97, Metabolic Activation: NONE, Method: STANDARD PLATE) was “inactive; negative”; the mutagenic call (Test System: AMES SALMONELLA TYPHIMURIUM, Strain/Indicator: TA97, Metabolic Activation: RAT, LIVER, S-9, AROCLOR 1254, Method: STANDARD PLATE) is “inactive; negative”; the mutagenic call under setting [1] was “inactive; negative”; the mutagenic call under setting [3] is “inactive; negative”; the mutagenic call under setting [2] is “inactive; negative”; the mutagenic call under setting [4] was “inactive; negative”. For the same molecule, the mutagenic call is, setting by setting: (Test System: AMES SALMONELLA TYPHIMURIUM, Strain/Indicator: TA1535, Metabolic Activation: NONE, Method: STANDARD PLATE) “inactive; negative”; (Test System: AMES SALMONELLA TYPHIMURIUM, Strain/Indicator: TA1535, Metabolic Activation: RAT, LIVER, S-9, AROCLOR 1254, Method: STANDARD PLATE) “inactive; negative”; (Test System: AMES SALMONELLA TYPHIMURIUM, Strain/Indicator: TA1538, Metabolic Activation: NONE, Method: STANDARD PLATE) “inactive; negative”; (Test System: AMES SALMONELLA TYPHIMURIUM, Strain/Indicator: TA1538, Metabolic Activation: RAT, LIVER, S-9, AROCLOR 1254, Method: STANDARD PLATE) “inactive; negative”.

For `CCOC(=O)c1ccc(N(O)C=O)cc1`, the mutagenic call is, setting by setting: under setting [1], “inactive; negative”; under setting [3], “inactive; negative”; under setting [2], “inactive; negative”; under setting [4], “inactive; negative”.

For `C1COCCN1`, the mutagenic call runs as follows: (Test System: AMES SALMONELLA TYPHIMURIUM, Strain/Indicator: TA98, Metabolic Activation: NONE, Method: PREINCUBATION) “inactive; negative”; (Test System: AMES SALMONELLA TYPHIMURIUM, Strain/Indicator: TA98, Metabolic Activation: RAT LIVER S-9, PHENOBARBITAL AND BETA-NAPHTHOFLAVONE, Method: PREINCUBATION) “inactive; negative”; (Test System: AMES SALMONELLA TYPHIMURIUM, Strain/Indicator: TA98, Metabolic Activation: RAT, LIVER, S-9, PCB, Method: PREINCUBATION) “inactive; negative”; (Test System: AMES SALMONELLA TYPHIMURIUM, Strain/Indicator: TA100, Metabolic Activation: NONE, Method: PREINCUBATION) “inactive; negative”; (Test System: AMES SALMONELLA TYPHIMURIUM, Strain/Indicator: TA100, Metabolic Activation: RAT LIVER S-9, PHENOBARBITAL AND BETA-NAPHTHOFLAVONE, Method: PREINCUBATION) “inactive; negative”; (Test System: AMES SALMONELLA TYPHIMURIUM, Strain/Indicator: TA100, Metabolic Activation: RAT, LIVER, S-9, PCB, Method: PREINCUBATION) “inactive; negative”. The mutagenic call is “inactive; negative” (Test System: AMES SALMONELLA TYPHIMURIUM, Strain/Indicator: TA1535, Metabolic Activation: NONE, Method: PREINCUBATION); “inactive; negative” (Test System: AMES SALMONELLA TYPHIMURIUM, Strain/Indicator: TA1535, Metabolic Activation: RAT LIVER S-9, PHENOBARBITAL AND BETA-NAPHTHOFLAVONE, Method: PREINCUBATION); “inactive; negative” (Test System: AMES SALMONELLA TYPHIMURIUM, Strain/Indicator: TA1537, Metabolic Activation: NONE, Method: PREINCUBATION); “inactive; negative” (Test System: AMES SALMONELLA TYPHIMURIUM, Strain/Indicator: TA1537, Metabolic Activation: RAT LIVER S-9, PHENOBARBITAL AND BETA-NAPHTHOFLAVONE, Method: PREINCUBATION); “inactive; negative” (Test System: E.COLI, Strain/Indicator: WP2UVRA, Metabolic Activation: NONE, Method: PREINCUBATION); “inactive; negative” (Test System: E.COLI, Strain/Indicator: WP2UVRA, Metabolic Activation: RAT LIVER S-9, PHENOBARBITAL AND BETA-NAPHTHOFLAVONE, Method: PREINCUBATION).

Consider `CC(=O)Oc1ccc(CCl)cc1`, for which the mutagenic call under setting [2] was “active; positive”.

In the case of `CC(O)c1ccc2ccc3cccc4ccc1c2c34` (stereo not drawn), the mutagenic call (Test System: AMES SALMONELLA TYPHIMURIUM, Strain/Indicator: TA98, Metabolic Activation: HUMAN, LIVER, CYTOSOL, PAPS, Method: PREINCUBATION) is “active; positive”.

As for `CC(=O)N[C@@H](CC(=O)O)C(=O)O`, the mutagenic call is “inactive; negative” (End Point: In vivo micronucleus, Test System: Bone marrow erythrocytes, Species: Mouse, Strain/Sex: Crl:CD1 (ICR)/Male and female, Route: Oral); “inactive; negative” (Test System: Ames Salmonella typhimurium, Strain/Indicator: TA98, Metabolic Activation: None, Method: Standard plate); “inactive; negative” (Test System: Ames Salmonella typhimurium, Strain/Indicator: TA98, Metabolic Activation: Rat, Liver, S-9, Aroclor 1254 (10%), Method: Standard plate); “inactive; negative” (Test System: Ames Salmonella typhimurium, Strain/Indicator: TA100, Metabolic Activation: None, Method: Standard plate); “inactive; negative” (Test System: Ames Salmonella typhimurium, Strain/Indicator: TA100, Metabolic Activation: Rat, Liver, S-9, Aroclor 1254 (10%), Method: Standard plate); “inactive; negative” (Test System: Ames Salmonella typhimurium, Strain/Indicator: TA1535, Metabolic Activation: None, Method: Standard plate). The mutagenic call runs as follows: (Test System: Ames Salmonella typhimurium, Strain/Indicator: TA1535, Metabolic Activation: Rat, Liver, S-9, Aroclor 1254 (10%), Method: Standard plate) “inactive; negative”; (Test System: Ames Salmonella typhimurium, Strain/Indicator: TA1537, Metabolic Activation: None, Method: Standard plate) “inactive; negative”; (Test System: Ames Salmonella typhimurium, Strain/Indicator: TA1537, Metabolic Activation: Rat, Liver, S-9, Aroclor 1254 (10%), Method: Standard plate) “inactive; negative”; (Test System: E. coli, Strain/Indicator: WP2 uvrA, Metabolic Activation: None, Method: Standard plate) “inactive; negative”; (Test System: E. coli, Strain/Indicator: WP2 uvrA, Metabolic Activation: Rat, Liver, S-9, Aroclor 1254 (10%), Method: Standard plate) “inactive; negative”.

As to `COC(=O)C1=CCCN(N=O)C1`, the mutagenic call is “active; positive” under setting [1]; “active; positive” (Test System: AMES SALMONELLA TYPHIMURIUM, Strain/Indicator: TA98, Metabolic Activation: RAT, LIVER, S-9, Method: STANDARD PLATE); “active; positive” under setting [2]; “active; positive” (Test System: AMES SALMONELLA TYPHIMURIUM, Strain/Indicator: TA100, Metabolic Activation: RAT, LIVER, S-9, Method: STANDARD PLATE).

(Values after PubChem BioAssay AID1259407 (Chemical Carcinogenesis Research Information System (CCRIS), 2018).)
